Measured values as given in patent US7393824B1, “Methods of peptide preparation” (Lytix Biopharma, priority 2000, dated 2008).
Like-named read-outs stand apart in the source and are kept apart here. Residues, ends and D or L forms follow the SMILES beside them.

Legend:
[1] = tested on: Escherichia coli ATCC 25922; format: cell-based
Method: (§1) The bacterial strains used were: Escherichia coli ATCC 25922 and Staphylococcus aureus ATCC 25923. All strains were stored at −70° C. The bacteria were grown in 2% Bacto Peptone water (Difco 1807-17-4). All tests were performed with bacteria in mid-logarithmic growth phase. Determination of the minimum inhibitory concentration (MIC) of the peptides for bacterial strains were performed in 1% Bacto Peptone water. A standard microdilution technique with an inoculum of 2×10^6 CFU/ml was used. All assays were performed in triplets. Since the peptides are positively charged and therefore could adhere to the plastic wells, we controlled the actual concentration of the peptides in the solution by HPLC. There was no difference between the concentration of the peptides before or after adding the solution to the plastic wells.

[2] = tested on: Staphylococcus aureus ATCC 25923; format: cell-based
Method: as §1

[3] = tested on: Meth A murine sarcoma cell line; format: cell-based; details: for IC50: 4 h
Method: Peptide solutions (0.1 ml) were added and the plates incubated at 37° C. for 30 minutes, 4 hours or 24 hours. The cytotoxicity was measured using the MTT method (Mosmann et al., J. Immunol. (1986) 136, 2348-2357).

human red blood cells = assay: Hemolytic assay; format: cell-based; details: for EC50: red cells of human
Method: The hemolytic activities of the peptides were determined using fresh human red blood cells. 8 ml blood was taken from a healthy person. 4 ml blood was transferred to a polycarbonate tube containing heparin to a final concentration of 10 U/ml, and the remaining 4 ml blood was transferred to a glass tube containing EDTA with final concentration of 15% EDTA. The erythrocytes were isolated from heparin-treated blood by centrifugation in 1500 rpm for 10 min and washed three times with phosphate-buffered saline (PBS) to remove plasma and buffy coat. The cell pellet was resuspended in PBS to make the final volume of 4 ml. The peptide was diluted to a concentration of 2 mg/ml and 0.1 mg/ml. The peptide was further diluted to the concentrations as stated in Table 1. For each tube PBS was added first, then RBCs and peptide solutions. The hematocrit in the blood treated with EDTA was determined after 30 min with Sysmex K-1000, and the resuspended RBCs were diluted into 10% hematocrit. RBCs in PBS (1%) with and without peptides (Table 18) were incubated in a shaker at […] for 1 hour and then centrifuged at 4000 rpm for 5 min. The supernatant were carefully transferred to new polycarbonate tubes and the absorbance of the supernatant was measured at 540 nm. Baseline hemolysis was hemoglobin released in the presence of PBS, and 100% hemolysis was hemoglobin released in the presence of 0.1% Triton X-100.

[4] = tested on: MRC-5 cells (normal fibroblasts); assay: Fibroblast assay (MTT); format: cell-based
Method: The cells were washed with PBS and then trypsinated using 2 ml trypsin (for a 80 cm culture flask). After the cells had detached from the wall, usually after ca 3 min. of incubation, 5 ml medium with FBS were added. The cells were resuspended and counted. The cells were then transferred to a centrifugation tube and spinned at 1500 rpm for 10 min. The supernatant was removed and the cells resuspended to a concentration of 1×10^5 cells/ml. 100 ul cells suspension was transferred to each well in a 96-well microtiter plate and incubated for 25 hours to allow the cells to attach. Following the incubation, the medium containing serum was removed by turning the plate upside down against a piece of tissue. 100 ul medium without serum and L-glutamine (assay medium) was added to each well, and then removed as before. This was done to remove any trace of serum. […] The rest of the assay was done as previously described for methA, except that after the 2 hour incubation following MTT addition, 80 ul medium instead of 130 ul were removed.

E. coli = details: from the literature; cited from earlier work
human erythrocytes = details: cited from earlier work
fibroblasts = details: cited from earlier work
S. aureus = details: from the literature; cited from earlier work

Row | Compound | Mic E-coli ([1]; ATCC 25922) | Mic S. Aureus ([2]; ATCC 25923) | IC50 [3] | EC50 (human red blood cells) | also measured
1 | CSCC[C@H](NC(=O)[C@H](CCCNC(=N)N)NC(=O)[C@H](Cc1c[nH]c2ccccc12)NC(=O)[C@H](C)NC(=O)[C@H](C)NC(=O)[C@H](CCCNC(=N)N)NC(=O)[C@H](Cc1ccccc1)NC(=O)[C@H](C)NC(=O)[C@H](CCCCN)NC(=O)[C@H](CCCNC(=N)N)NC(=O)[C@H](Cc1c[nH]c2ccccc12)NC(=O)[C@H](C)NC(=O)[C@@H]1CCCN1)C(=O)N[C@@H](CC(C)C)C(=O)N[C@@H](CCCCN)C(=O)N[C@@H](CCCCN)C(=O)N[C@@H](C)C(=O)N[C@@H](C)C(=O)O [W9→A9, LFB 14-31A2,6,9,10,17F7K16L14R4] (H-PAWRKAFRAAWRMLKKAA-OH; N-terminus and C-terminus assumed) | 4.6 µM | 2.4 µM |  |  | 
2 | CSCC[C@H](NC(=O)[C@H](CCCNC(=N)N)NC(=O)[C@H](C)NC(=O)[C@H](C)NC(=O)[C@H](Cc1c[nH]c2ccccc12)NC(=O)[C@H](CCCNC(=N)N)NC(=O)[C@H](Cc1ccccc1)NC(=O)[C@H](C)NC(=O)[C@H](CCCCN)NC(=O)[C@H](CCCNC(=N)N)NC(=O)[C@H](Cc1c[nH]c2ccccc12)NC(=O)[C@H](C)NC(=O)[C@@H]1CCCN1)C(=O)N[C@@H](CC(C)C)C(=O)N[C@@H](CCCCN)C(=O)N[C@@H](CCCCN)C(=O)N[C@@H](C)C(=O)N[C@@H](C)C(=O)O [W11→A11, LFB 14-31A2,6,10,11,17F7K16L14R4] (H-PAWRKAFRWAARMLKKAA-OH; N-terminus and C-terminus assumed) | 4.6 µM | >1.2 µM | 11 µM |  | fold decrease in activity against Meth A compared to LFB(14-31)m [3]: 1.5 fold
3 | CC[C@H](C)[C@H](NC(=O)[C@H](C)NC(=O)[C@H](Cc1c[nH]c2ccccc12)NC(=O)[C@H](CCCNC(=N)N)NC(=O)[C@H](Cc1ccccc1)NC(=O)[C@H](C)NC(=O)[C@H](CCCCN)NC(=O)[C@H](CCCNC(=N)N)NC(=O)[C@H](Cc1c[nH]c2ccccc12)NC(=O)[C@H](C)NC(=O)[C@@H]1CCCN1)C(=O)N[C@@H](CCCNC(=N)N)C(=O)N[C@@H](CCSC)C(=O)N[C@@H](CC(C)C)C(=O)N[C@@H](CCCCN)C(=O)N[C@@H](CCCCN)C(=O)N[C@@H](C)C(=O)N[C@@H](C)C(=O)O [W11→I11] (H-PAWRKAFRWAIRMLKKAA-OH; N-terminus and C-terminus assumed) |  |  | 6 µM | 63.6 µM | Mic E-coli ([1]; Table 2): ⅖
4 | CC[C@H](C)[C@H](NC(=O)[C@H](C)NC(=O)[C@@H](NC(=O)[C@H](CCCNC(=N)N)NC(=O)[C@H](Cc1ccccc1)NC(=O)[C@H](C)NC(=O)[C@H](CCCCN)NC(=O)[C@H](CCCNC(=N)N)NC(=O)[C@H](Cc1c[nH]c2ccccc12)NC(=O)[C@H](C)NC(=O)[C@@H]1CCCN1)[C@@H](C)CC)C(=O)N[C@@H](CCCNC(=N)N)C(=O)N[C@@H](CCSC)C(=O)N[C@@H](CC(C)C)C(=O)N[C@@H](CCCCN)C(=O)N[C@@H](CCCCN)C(=O)N[C@@H](C)C(=O)N[C@@H](C)C(=O)O [W9,11→I9,11] (H-PAWRKAFRIAIRMLKKAA-OH; N-terminus and C-terminus assumed) | 35 µM | 19 µM | 22 µM | 284 µM | IC50 [4]: 26 µM
5 | (KAAKKAA)3 |  |  |  |  | MIC against E. coli (E. coli): 8 µM; activity against human erythrocytes (human erythrocytes): no measurable activity; activity against fibroblasts (fibroblasts): no measurable activity; MIC against S. aureus (S. aureus): 8 µM
6 | CSCC[C@H](NC(=O)[C@H](CCCNC(=N)N)NC(=O)[C@H](C)NC(=O)[C@H](C)NC(=O)[C@H](C)NC(=O)[C@H](CCCNC(=N)N)NC(=O)[C@H](Cc1ccccc1)NC(=O)[C@H](C)NC(=O)[C@H](CCCCN)NC(=O)[C@H](CCCNC(=N)N)NC(=O)[C@H](Cc1c[nH]c2ccccc12)NC(=O)[C@H](C)NC(=O)[C@@H]1CCCN1)C(=O)N[C@@H](CC(C)C)C(=O)N[C@@H](CCCCN)C(=O)N[C@@H](CCCCN)C(=O)N[C@@H](C)C(=O)N[C@@H](C)C(=O)O [W9,11→A9,11, LFB 14-31A2,6,9,10,11,17F7K16L14R4] (H-PAWRKAFRAAARMLKKAA-OH) | 14.7 µM | 14.7 µM | 110 µM | > 489 µM | cytotoxic / hemolytic activity against red blood cells (human red blood cells): no cytotoxic activity; IC50 [4]: > 489 µM; toxicity to fibroblasts [4]: no cytotoxic activity
7 | CSCC[C@H](NC(=O)[C@H](CCCNC(=N)N)NC(=O)[C@H](Cc1c[nH]c2ccccc12)NC(=O)[C@H](C)NC(=O)[C@H](Cc1c[nH]c2ccccc12)NC(=O)[C@H](CCCNC(=N)N)NC(=O)[C@H](Cc1ccccc1)NC(=O)[C@H](C)NC(=O)[C@H](CCCCN)NC(=O)[C@H](CCCNC(=N)N)NC(=O)[C@H](C)NC(=O)[C@H](C)NC(=O)[C@@H]1CCCN1)C(=O)N[C@@H](CC(C)C)C(=O)N[C@@H](CCCCN)C(=O)N[C@@H](CCCCN)C(=O)N[C@@H](C)C(=O)N[C@@H](C)C(=O)O [W3→A3, LFB 14-31A2,3,6,10,17F7K16L14R4] (H-PAARKAFRWAWRMLKKAA-OH) | 6.9 µM | 4.6 µM |  |  | toxicity to fibroblasts [4]: little toxicity against fibroblasts
8 | CC[C@H](C)[C@H](NC(=O)[C@H](C)NC(=O)[C@@H]1CCCN1)C(=O)N[C@@H](CCCNC(=N)N)C(=O)N[C@@H](CCCCN)C(=O)N[C@@H](C)C(=O)N[C@@H](Cc1ccccc1)C(=O)N[C@@H](CCCNC(=N)N)C(=O)N[C@@H](Cc1c[nH]c2ccccc12)C(=O)N[C@@H](C)C(=O)N[C@@H](Cc1c[nH]c2ccccc12)C(=O)N[C@@H](CCCNC(=N)N)C(=O)N[C@@H](CCSC)C(=O)N[C@@H](CC(C)C)C(=O)N[C@@H](CCCCN)C(=O)N[C@@H](CCCCN)C(=O)N[C@@H](C)C(=O)N[C@@H](C)C(=O)O [W3→I3] (H-PAIRKAFRWAWRMLKKAA-OH; N-terminus and C-terminus assumed) |  |  |  |  | Mic E-coli ([1]; Table 2): 2/4; Mic S. Aureus ([2]; Table 2): 2/4
